Results: US20230398237A1 (priority 2020, published 2023)

Experiments:
[1] = test system: serum proteins (fetal bovine serum); test: Serum protein binding test by agarose gel electrophoresis; format: in vitro ADME; details: 10% FBS, 37° C., 30 min
Procedure: Coomassie brilliant blue 250 (CBB) was used to stain FBS. Color pictures of CBB-stained protein were inserted.
All these samples were analyzed using 2% agarose gel electrophoresis. […] The fluorescence images were taken by Carestream In-vivo FX Pro imaging system under 790 nm/830 nm. Non-invasive fluorescence imaging of body with ICG-PEG conjugates and ex vivo images

[2] = before elimination through the liver; cited from earlier work
[3] = Clearance efficiencies in urine and feces; details: within 24 h post intravenous injection
Description: Then, the urine and feces were quantified based on fluorescence and each standard curve of conjugates were built in control urine and control feces.

[4] = test system: organic anion transporter; test: Probenecid inhibition studies (renal clearance efficiency); format: in vivo, BALB/c mice; details: 200 mg/kg probenecid i.p., urine at 30 min p.i.
Procedure: BALB/c mice were pre-treated by intraperitoneal injection of 200 mg/kg probenecid and control group were treated by PBS. […] The mice were anesthetized under 3% isoflurane for 30 min under steady breath rate of 7-8 times per 15 sec. After 30 min, the urine was collected from bladder and quantified by fluorescence.

Row | serum protein binding [1] | clearance percentage in feces [3] | Molecule | time retained in normal renal parenchyma [2] | effect of probenecid on renal clearance efficiency [4]
1 | completely binds protein | 85.3 % ID | CC1(C)C(/C=C/C=C/C=C/C=C2\N(CCCCS(=O)(=O)O)c3ccc4ccccc4c3C2(C)C)=[N+](CCCCS(=O)(=O)[O-])c2ccc3ccccc3c21 [ICG, Indocyanine green] | < 15 min | 
2 |  |  | FITC-inulin |  | no significant difference
